Measurements taken from patent US8993574B2, “Pyrrole antifungal agents” (F2G Ltd, priority 2008, dated 2015).
Values after ≈ are worked out from the molar mass of the structure shown.

How the values were obtained:
Type in all cases: cell-based
[1] = tested on: Aspergillus flavus; assay: MIC, YAG medium; details: 24 h at 35° C, MIC banded into grades; for MIC: Aspergillus flavus, 24 h, read-out: MIC grade, A. flavus
In short: (§1)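 Broth microdilution in YAG medium tests compound over 50-0.05 mg/L against spores at 1−2×10^4 cfu/mL. After 24 h incubation at 35° C, optical density at 485 nm gives growth, and the MIC is the lowest concentration reducing it by more than 70% relative to untreated control.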

[2] = tested on: Aspergillus fumigatus AF210; assay: MIC, YAG medium; details: 24 h at 35° C, MIC banded into grades; for MIC: Aspergillus fumigatus, read-out: MIC grade, A. fumigatus 210
In short: as §1

[3] = tested on: Aspergillus fumigatus AF293; assay: MIC, YAG medium; details: 24 h at 35° C, MIC banded into grades; for MIC: Aspergillus fumigatus, read-out: MIC grade, A. fumigatus
In short: as §1

[4] = tested on: Aspergillus niger; assay: MIC, YAG medium; details: 24 h at 35° C, MIC banded into grades; for MIC: Aspergillus niger, read-out: MIC grade, A. niger
In short: as §1

[5] = tested on: Aspergillus terreus AT49; assay: MIC, YAG medium; details: 24 h at 35° C, MIC banded into grades; for MIC: Aspergillus terreus, read-out: MIC grade, A. terreus 49
In short: as §1

[6] = tested on: Aspergillus terreus AT4; assay: MIC, YAG medium; details: 24 h at 35° C, MIC banded into grades; for MIC: Aspergillus terreus, read-out: MIC grade, A. terreus
In short: as §1

[7] = tested on: Aspergillus flavus; assay: MIC, RPMI medium; details: MIC banded into grades; for MIC: Aspergillus flavus, read-out: MIC grade, A. flavus
In short: (§2)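 MIC taken as lowest drug level inhibiting growth by >80% relative to drug-free wells, read as OD at 485 nm after 24-48 h at 35° C. Organisms at 1−2×10^4 cfu/mL in RPMI (2% glucose, 0.135 M MOPS, pH 7.0) exposed to doubling dilutions spanning 50-0.05 mg/L.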

[8] = tested on: Aspergillus fumigatus AF210; assay: MIC, RPMI medium; details: for MIC: Aspergillus fumigatus, AF210, MIC banded into grades, read-out: MIC grade, A. fumigatus 210; for MIC grade, A. fumigatus 210: MIC banded into grades
In short: as §2

[9] = tested on: Aspergillus fumigatus AF293; assay: MIC, RPMI medium; details: for MIC: Aspergillus fumigatus, AF293, MIC banded into grades, read-out: MIC grade, A. fumigatus; for MIC grade, A. fumigatus: MIC banded into grades
In short: as §2

[10] = tested on: Aspergillus niger; assay: MIC, RPMI medium; details: MIC banded into grades; for MIC: Aspergillus niger, read-out: MIC grade, A. niger
In short: as §2

[11] = tested on: Aspergillus terreus AT49; assay: MIC, RPMI medium; details: for MIC: Aspergillus terreus, AT49, MIC banded into grades, read-out: MIC grade, A. terreus 49; for MIC grade, A. terreus 49: MIC banded into grades
In short: as §2

[12] = tested on: Aspergillus terreus AT4; assay: MIC, RPMI medium; details: for MIC: Aspergillus terreus, AT4, MIC banded into grades, read-out: MIC grade, A. terreus; for MIC grade, A. terreus: MIC banded into grades
In short: as §2

MIC [1] [µg/mL]	MIC [2] [µg/mL]	MIC [3] [µg/mL]	MIC [4] [µg/mL]	MIC [5] [µg/mL]	MIC [6] [µg/mL]	MIC [7] [µg/mL]	MIC [8] [µg/mL]	MIC [9] [µg/mL]	MIC [10] [µg/mL]	MIC [11] [µg/mL]	MIC [12] [µg/mL]	SMILES	further results
1 to 10 (≈ 1.82 to 18.2 µM)	< 1	< 1	1 to 10 (≈ 1.82 to 18.2 µM)	< 1	< 1	1 to 10 (≈ 1.82 to 18.2 µM)	1 to 10 (≈ 1.82 to 18.2 µM)	1 to 10 (≈ 1.82 to 18.2 µM)	1 to 10 (≈ 1.82 to 18.2 µM)	< 1	< 1	Cc1cc(C)nc(N2CCN(c3ccc(NC(=O)C(=O)c4c(-c5ccccc5)cc5n4CCN(C)C5)cc3)CC2)c1 [Example 5, N-{4-[4-(4,6-Dimethyl-pyridin-2-yl)-piperazin-1-yl]-phenyl}-2-(2-methyl-7-phenyl-1,2,3,4-tetrahydro-pyrrolo[1,2-a]pyrazin-6-yl)-2-oxo-acetamide]	–
< 1	< 1	< 1	< 1	< 1	< 1	< 1	< 1	< 1	< 1	< 1	< 1	CCCn1c(C)cc(-c2ccccc2)c1C(=O)C(=O)Nc1ccc(N2CCN(c3cc(C)cc(C)n3)CC2)cc1 [Example 35, N-{4-[4-(4,6-Dimethyl-pyridin-2-yl)-piperazin-1-yl]-phenyl}-2-(5-methyl-3-phenyl-1-propyl-1H-pyrrol-2-yl)-2-oxo-acetamide]	–
< 1	< 1	< 1	< 1	< 1	< 1	< 1	< 1	< 1	< 1	< 1	< 1	CCn1c(C)cc(-c2ccccc2)c1C(=O)C(=O)Nc1ccc(N2CCN(c3cc(C)cc(C)n3)CC2)cc1 [Example 34, N-{4-[4-(4,6-Dimethyl-pyridin-2-yl)-piperazin-1-yl]-phenyl}-2-(1-ethyl-5-methyl-3-phenyl-1H-pyrrol-2-yl)-2-oxo-acetamide]	–
–	–	–	–	–	–	–	–	–	–	–	–	COCCn1c(C)cc(-c2ccccc2)c1C(=O)C(=O)Nc1ccc(N2CCN(c3cc(C)cc(C)n3)CC2)cc1Cl [Example 92, N-{2-Chloro-4-[4-(4,6-dimethyl-pyridin-2-yl)-piperazin-1-yl]-phenyl}-2-[1-(2-methoxy-ethyl)-5-methyl-3-phenyl-1H-pyrrol-2-yl]-2-oxo-acetamide]	MIC grade, A. flavus [1]: 3 (A grade of 3 represents an MIC of less than 1 mg/L); MIC grade, A. fumigatus 210 [2]: 3 (A grade of 3 represents an MIC of less than 1 mg/L); MIC grade, A. fumigatus [3]: 3 (A grade of 3 represents an MIC of less than 1 mg/L); MIC grade, A. niger [4]: 3 (A grade of 3 represents an MIC of less than 1 mg/L); MIC grade, A. terreus 49 [5]: 3 (A grade of 3 represents an MIC of less than 1 mg/L); MIC grade, A. terreus [6]: 3 (A grade of 3 represents an MIC of less than 1 mg/L); MIC grade, A. flavus [7]: 1 (a grade of 1 represents an MIC of greater than 10 mg/L); MIC grade, A. fumigatus 210 [8]: 3 (A grade of 3 represents an MIC of less than 1 mg/L); MIC grade, A. fumigatus [9]: 3 (A grade of 3 represents an MIC of less than 1 mg/L); MIC grade, A. niger [10]: 3 (A grade of 3 represents an MIC of less than 1 mg/L); MIC grade, A. terreus 49 [11]: 1 (a grade of 1 represents an MIC of greater than 10 mg/L); MIC grade, A. terreus [12]: 1 (a grade of 1 represents an MIC of greater than 10 mg/L)
–	–	–	–	–	–	–	–	–	–	–	–	Cc1cc(-c2ccccc2)c(C(=O)C(=O)Nc2ccc(-c3ncc(CN4CCCCC4)o3)cc2)n1C [Example 153, 2-(1,5-Dimethyl-3-phenyl-1H-pyrrol-2-yl)-2-oxo-N-[4-(5-piperdin-1-ylmethyl-oxazol-2-yl)-phenyl]-acetamide]	MIC grade, A. flavus [1]: 3 (A grade of 3 represents an MIC of less than 1 mg/L); MIC grade, A. fumigatus 210 [2]: 2 (A grade of 2 represents an MIC of from 1 to 10 mg/L); MIC grade, A. fumigatus [3]: 3 (A grade of 3 represents an MIC of less than 1 mg/L); MIC grade, A. niger [4]: 3 (A grade of 3 represents an MIC of less than 1 mg/L); MIC grade, A. terreus 49 [5]: 3 (A grade of 3 represents an MIC of less than 1 mg/L); MIC grade, A. terreus [6]: 2 (A grade of 2 represents an MIC of from 1 to 10 mg/L); MIC grade, A. flavus [7]: 2 (A grade of 2 represents an MIC of from 1 to 10 mg/L); MIC grade, A. fumigatus 210 [8]: 2 (A grade of 2 represents an MIC of from 1 to 10 mg/L); MIC grade, A. fumigatus [9]: 2 (A grade of 2 represents an MIC of from 1 to 10 mg/L); MIC grade, A. niger [10]: 3 (A grade of 3 represents an MIC of less than 1 mg/L); MIC grade, A. terreus 49 [11]: 3 (A grade of 3 represents an MIC of less than 1 mg/L); MIC grade, A. terreus [12]: 3 (A grade of 3 represents an MIC of less than 1 mg/L)
< 1	< 1	< 1	< 1	< 1	< 1	< 1	< 1	< 1	< 1	< 1	< 1	Cc1cc(C)nc(N2CCN(c3ccc(NC(=O)C(=O)c4c(-c5ccccc5)c(F)c(C)n4C)cc3)CC2)c1 [Example 90, N-{4-[4-(4,6-Dimethyl-pyridin-2-yl)-piperazin-1-yl]-phenyl}-2-(4-fluoro-1,5-dimethyl-3-phenyl-1H-pyrrol-2-yl)-2-oxo-acetamide]	–
1 to 10 (≈ 2.4 to 24 µM)	1 to 10 (≈ 2.4 to 24 µM)	1 to 10 (≈ 2.4 to 24 µM)	1 to 10 (≈ 2.4 to 24 µM)	1 to 10 (≈ 2.4 to 24 µM)	> 10	> 10	> 10	> 10	> 10	> 10	> 10	Cc1cc(C)nc(N2CCN(c3ccc(NC(=O)C(=O)c4ccc(C)[nH]4)cc3)CC2)c1 [Example 4, N-{4-[4-(4,6-Dimethyl-pyridin-2-yl)-piperazin-1-yl]-phenyl}-2-(5-methyl-1H-pyrrol-2-yl)-2-oxo-acetamide]	–
1 to 10 (≈ 1.72 to 17.2 µM)	< 1	< 1	< 1	< 1	< 1	1 to 10 (≈ 1.72 to 17.2 µM)	< 1	< 1	1 to 10 (≈ 1.72 to 17.2 µM)	1 to 10 (≈ 1.72 to 17.2 µM)	1 to 10 (≈ 1.72 to 17.2 µM)	COCCOCn1c(C)cc(-c2ccccc2)c1C(=O)C(=O)Nc1ccc(N2CCN(c3cc(C)cc(C)n3)CC2)cc1 [Example 138, N-{4-[4-(4,6-Dimethyl-pyridin-2-yl)-piperazin-1-yl]-phenyl}-2-[1-(2-methoxy-ethoxymethyl)-5-methyl-3-phenyl-1H-pyrrol-2-yl]-2-oxo-acetamide]	–
< 1	< 1	< 1	< 1	< 1	< 1	< 1	< 1	< 1	< 1	< 1	< 1	CCCCn1c(C)cc(-c2ccccc2)c1C(=O)C(=O)Nc1ccc(N2CCN(c3cc(C)cc(C)n3)CC2)cc1 [Example 36, 2-(1-Butyl-5-methyl-3-phenyl-1H-pyrrol-2-yl)-N-{4-[4-(4,6-dimethyl-pyridin-2-yl)-piperazin-1-yl]-phenyl}-2-oxo-acetamide]	–
> 10	1 to 10 (≈ 1.99 to 19.9 µM)	1 to 10 (≈ 1.99 to 19.9 µM)	> 10	1 to 10 (≈ 1.99 to 19.9 µM)	1 to 10 (≈ 1.99 to 19.9 µM)	> 10	> 10	> 10	> 10	> 10	> 10	COCCn1ccc(C(C)C)c1C(=O)C(=O)Nc1ccc(N2CCN(c3cc(C)cc(C)n3)CC2)cc1 [Example 83, N-{4-[4-(4,6-Dimethyl-pyridin-2-yl)-piperazin-1-yl]-phenyl}-2-[3-isopropyl-1-(2-methoxy-ethyl)-1H-pyrrol-2-yl]-2-oxo-acetamide]	–
